Experimental data taken from patent US20120029187A1, “HALOALKYLSULFONANILIDE DERIVATIVE” (Nissan Chemical Industries, Ltd., priority 2009, published 2012).

Columns and labels:
Format in all cases: in vivo
common lambsquater [1] = assay: Test Example 4: herbicidal effect in foliage treatment; settings: dose 3.2 g/a, three weeks after application
Text: (§1) Test on the Herbicidal Effect in Foliage Treatment
(§2) Sterilized diluvial soil was put in plastic boxes with a length of 21 cm, a width of 13 cm and a depth of 7 cm, and seeds of barnyardgrass, large crabgrass, giant foxtail, wild oat, blackgrass, velvetleaf, common ragweed, redroot pigweed, common lambsquater, posumbu knotweed, common chickweed, corn, soybean, rice, wheat and sugar beet were sown in spots and covered with an about 1.5 cm-thick soil layer. The boxes were placed in a greenhouse at 25 to 30° C. to grow the plants. After 14 days, emulsifiable concentrates containing compounds of the present invention formulated in accordance with Formulation Example 2 were uniformly applied to the foliage at predetermined doses through a small sprayer after diluted with water. Three weeks after the application, the herbicidal effects against various plants were determined on the same evaluation scale as in Test Example 1.
(§3) A: barnyardgrass, B: bulrush, C: ducksalad, D: large crabgrass, E: giant foxtail, F: wild oat, G: water foxtail, H: Italian ryegrass, I: velvetleaf, J: common ragweed, K: redroot pigweed, L: common lambsquater, M: posumbu knotweed, N: common chickweed, O: beadstraw, a: transplanted rice, b: corn, c: soybean, d: direct-seeded rice, e: wheat, f: sugar beet.
(§4) The doses (g/a) represents the amounts in g per 1 are (a) applied after adjustment of concentration adjustment.

water foxtail [2] = assay: as above; settings: dose 3.2 g/a, three weeks after application
Text: as §1, §2, §3, §4

posumbu knotweed [3] = assay: as above; settings: dose 3.2 g/a, three weeks after application
Text: as §1, §2, §3, §4

Italian ryegrass [4] = assay: as above; settings: dose 3.2 g/a, three weeks after application
Text: as §1, §2, §3, §4

velvetleaf = assay: as above; settings: dose 3.2 g/a, three weeks after application
Text: as §1, §2, §3, §4

redroot pigweed [5] = assay: as above; settings: dose 3.2 g/a, three weeks after application
Text: as §1, §2, §3, §4

large crabgrass [6] = assay: as above; settings: dose 3.2 g/a, three weeks after application
Text: as §1, §2, §3, §4

common chickweed [7] = assay: as above; settings: dose 3.2 g/a, three weeks after application
Text: as §1, §2, §3, §4

barnyardgrass [8] = assay: as above; settings: dose 3.2 g/a, three weeks after application
Text: as §1, §2, §3, §4

giant foxtail [9] = assay: as above; settings: dose 3.2 g/a, three weeks after application
Text: as §1, §2, §3, §4

beadstraw = assay: as above; settings: dose 3.2 g/a, three weeks after application
Text: as §1, §2, §3, §4

common ragweed [10] = assay: as above; settings: dose 3.2 g/a, three weeks after application
Text: as §1, §2, §3, §4

bulrush [11] = assay: Test Example 2: herbicidal effects during the vegetation period under submerged conditions; settings: treatment during the vegetation period under submerged conditions; dose 2.52 g/a
Method: (§5) Test on the Herbicidal Effects on Weeds During the Vegetation Period Under Submerged Conditions
(§6) Alluvial soil was put in 1/30000-are styrol cups and admixed with water so that it was submerged at a depth of 4 cm. In each cup, seeds of barnyardgrass, bulrush and ducksalad were sown together, and the cups were placed in a greenhouse at 25 to 30° C. to grow the plants. When the barnyardgrass, bulrush and ducksalad reached the 1- or 2-leaf stage, emulsifiable concentrates containing compounds of the present invention formulated in accordance with Formulation Example 2 were applied to the water surfaces at predetermined doses after diluted with water. Three weeks after the application, the herbicidal effects against various plants were determined on the same evaluation scale as in Test Example 1.
as §3, §4

barnyardgrass [12] = assay: as above; settings: treatment during the vegetation period under submerged conditions; dose 2.52 g/a
Method: as §5, §6, §3, §4

ducksalad [13] = assay: as above; settings: treatment during the vegetation period under submerged conditions; dose 2.52 g/a
Method: as §5, §6, §3, §4

bulrush [14] = assay: Test Example 1: herbicidal effects in preemergence treatment under submerged conditions; settings: dose 2.52 g/a
Text: (§7) Test on the Herbicidal Effects in Preemergence Treatment on Weeds Under Submerged Conditions
(§8) Alluvial soil was put in 1/30000-are styrol cups and admixed with water so that it was submerged at a depth of 4 cm. In each cup, seeds of barnyardgrass, bulrush and ducksalad were sown together, and rice seedlings at the 2.5-leaf stage were transplanted. On the same day as the seeding, emulsifiable concentrates containing compounds of the present invention formulated in accordance with Formulation Example 2 were applied to the water surfaces at predetermined doses after diluted with water. The cups were placed in a greenhouse at 25 to 30° C. to grow the plants. Three weeks after the application, the herbicidal effects against various plants were determined on the following evaluation scale.
(§9) 5 mortality of 90% or above (nearly complete death)
(§10) 4 mortality of at least 70% and less than 90%
(§11) 3 mortality of at least 40% and less than 70%
(§12) 2 mortality of at least 20% and less than 40%
(§13) 1 mortality of at least 5% and less than 20%
(§14) 0 mortality of less than 5% (almost ineffective)
as §3, §4

barnyardgrass [15] = assay: as above; settings: dose 2.52 g/a
Text: as §7, §8, §9, §10, §11, §12, §13, §14, §3, §4

ducksalad [16] = assay: as above; settings: dose 2.52 g/a
Text: as §7, §8, §9, §10, §11, §12, §13, §14, §3, §4

transplanted rice = assay: Test Example 1: preemergence treatment under submerged conditions, effect on crop; settings: dose 2.52 g/a
Text: as §7, §8, §9, §10, §11, §12, §13, §14, §3, §4

common lambsquater [17] = assay: Test Example 3: herbicidal effects in soil treatment; settings: dose 3.2 g/a
Text: (§15) Test on the Herbicidal Effects in Soil Treatment
as §2, with “chickweed” for “chickweed,”, “Emulsifiable” for “The boxes were placed in a greenhouse at 25 to 30° C. to grow the plants. After 14 days, emulsifiable”, “soil surfaces” for “foliage”, “dilute” for “diluted”
as §3, §4

water foxtail [18] = assay: as above; settings: dose 3.2 g/a
Text: as §15
as §2, with “chickweed” for “chickweed,”, “Emulsifiable” for “The boxes were placed in a greenhouse at 25 to 30° C. to grow the plants. After 14 days, emulsifiable”, “soil surfaces” for “foliage”, “dilute” for “diluted”
as §3, §4

posumbu knotweed [19] = assay: as above; settings: dose 3.2 g/a
Text: as §15
as §2, with “chickweed” for “chickweed,”, “Emulsifiable” for “The boxes were placed in a greenhouse at 25 to 30° C. to grow the plants. After 14 days, emulsifiable”, “soil surfaces” for “foliage”, “dilute” for “diluted”
as §3, §4

Italian ryegrass [20] = assay: as above; settings: dose 3.2 g/a
Text: as §15
as §2, with “chickweed” for “chickweed,”, “Emulsifiable” for “The boxes were placed in a greenhouse at 25 to 30° C. to grow the plants. After 14 days, emulsifiable”, “soil surfaces” for “foliage”, “dilute” for “diluted”
as §3, §4

redroot pigweed [21] = assay: as above; settings: dose 3.2 g/a
Text: as §15
as §2, with “chickweed” for “chickweed,”, “Emulsifiable” for “The boxes were placed in a greenhouse at 25 to 30° C. to grow the plants. After 14 days, emulsifiable”, “soil surfaces” for “foliage”, “dilute” for “diluted”
as §3, §4

large crabgrass [22] = assay: as above; settings: dose 3.2 g/a
Text: as §15
as §2, with “chickweed” for “chickweed,”, “Emulsifiable” for “The boxes were placed in a greenhouse at 25 to 30° C. to grow the plants. After 14 days, emulsifiable”, “soil surfaces” for “foliage”, “dilute” for “diluted”
as §3, §4

common chickweed [23] = assay: as above; settings: dose 3.2 g/a
Text: as §15
as §2, with “chickweed” for “chickweed,”, “Emulsifiable” for “The boxes were placed in a greenhouse at 25 to 30° C. to grow the plants. After 14 days, emulsifiable”, “soil surfaces” for “foliage”, “dilute” for “diluted”
as §3, §4

barnyardgrass [24] = assay: as above; settings: dose 3.2 g/a
Text: as §15
as §2, with “chickweed” for “chickweed,”, “Emulsifiable” for “The boxes were placed in a greenhouse at 25 to 30° C. to grow the plants. After 14 days, emulsifiable”, “soil surfaces” for “foliage”, “dilute” for “diluted”
as §3, §4

giant foxtail [25] = assay: as above; settings: dose 3.2 g/a
Text: as §15
as §2, with “chickweed” for “chickweed,”, “Emulsifiable” for “The boxes were placed in a greenhouse at 25 to 30° C. to grow the plants. After 14 days, emulsifiable”, “soil surfaces” for “foliage”, “dilute” for “diluted”
as §3, §4

common ragweed [26] = assay: as above; settings: dose 3.2 g/a
Text: as §15
as §2, with “chickweed” for “chickweed,”, “Emulsifiable” for “The boxes were placed in a greenhouse at 25 to 30° C. to grow the plants. After 14 days, emulsifiable”, “soil surfaces” for “foliage”, “dilute” for “diluted”
as §3, §4

CC(C)COC(=O)N(c1ccccc1CN1COC(C)(C(F)(F)F)CC1=O)S(=O)(=O)C(F)(F)F (centres unmarked) [II-50]
L: common lambsquater, herbicidal effect (common lambsquater [1]): 2 (mortality of at least 20% and less than 40%) | G: water foxtail, herbicidal effect (water foxtail [2]): 1 (mortality of at least 5% and less than 20%) | M: posumbu knotweed, herbicidal effect (posumbu knotweed [3]): 0 (mortality of less than 5% (almost ineffective)) | H: Italian ryegrass, herbicidal effect (Italian ryegrass [4]): 0 (mortality of less than 5% (almost ineffective)) | I: velvetleaf, herbicidal effect (velvetleaf): 0 (mortality of less than 5% (almost ineffective)) | K: redroot pigweed, herbicidal effect (redroot pigweed [5]): 0 (mortality of less than 5% (almost ineffective)) | D: large crabgrass, herbicidal effect (large crabgrass [6]): 0 (mortality of less than 5% (almost ineffective)) | N: common chickweed, herbicidal effect (common chickweed [7]): 3 (mortality of at least 40% and less than 70%) | A: barnyardgrass, herbicidal effect (barnyardgrass [8]): 3 (mortality of at least 40% and less than 70%) | E: giant foxtail, herbicidal effect (giant foxtail [9]): 0 (mortality of less than 5% (almost ineffective)) | O: beadstraw, herbicidal effect (beadstraw): 4 (mortality of at least 70% and less than 90%) | J: common ragweed, herbicidal effect (common ragweed [10]): 3 (mortality of at least 40% and less than 70%) | B: bulrush, herbicidal effect (evaluation scale 0-5) (bulrush [11]): 5 (mortality of 90% or above (nearly complete death)) | A: barnyardgrass, herbicidal effect (evaluation scale 0-5) (barnyardgrass [12]): 5 (mortality of 90% or above (nearly complete death)) | C: ducksalad, herbicidal effect (evaluation scale 0-5) (ducksalad [13]): 5 (mortality of 90% or above (nearly complete death)) | B: bulrush, herbicidal effect (evaluation scale 0-5) (bulrush [14]): 5 (mortality of 90% or above (nearly complete death)) | A: barnyardgrass, herbicidal effect (evaluation scale 0-5) (barnyardgrass [15]): 5 (mortality of 90% or above (nearly complete death)) | C: ducksalad, herbicidal effect (evaluation scale 0-5) (ducksalad [16]): 5 (mortality of 90% or above (nearly complete death)) | a: transplanted rice, effect on crop (evaluation scale 0-5) (transplanted rice): 0 (mortality of less than 5% (almost ineffective)) | L: common lambsquater, herbicidal effect (evaluation scale 0-5) (common lambsquater [17]): 3 (mortality of at least 40% and less than 70%) | G: water foxtail, herbicidal effect (evaluation scale 0-5) (water foxtail [18]): 4 (mortality of at least 70% and less than 90%) | M: posumbu knotweed, herbicidal effect (evaluation scale 0-5) (posumbu knotweed [19]): 0 (mortality of less than 5% (almost ineffective)) | H: Italian ryegrass, herbicidal effect (evaluation scale 0-5) (Italian ryegrass [20]): 0 (mortality of less than 5% (almost ineffective)) | K: redroot pigweed, herbicidal effect (evaluation scale 0-5) (redroot pigweed [21]): 0 (mortality of less than 5% (almost ineffective)) | D: large crabgrass, herbicidal effect (evaluation scale 0-5) (large crabgrass [22]): 3 (mortality of at least 40% and less than 70%) | N: common chickweed, herbicidal effect (evaluation scale 0-5) (common chickweed [23]): 3 (mortality of at least 40% and less than 70%) | A: barnyardgrass, herbicidal effect (evaluation scale 0-5) (barnyardgrass [24]): 4 (mortality of at least 70% and less than 90%) | E: giant foxtail, herbicidal effect (evaluation scale 0-5) (giant foxtail [25]): 2 (mortality of at least 20% and less than 40%) | J: common ragweed, herbicidal effect (evaluation scale 0-5) (common ragweed [26]): 3 (mortality of at least 40% and less than 70%)
